Measurements reported in patent US5624948A, “1-(2-benzimidazolyl)-1,5-diazacyclooctane compounds” (Kissei Pharmaceutical Co., Ltd., priority 1993, dated 1997).

What was measured:
bronchial tissues = details: topical formulation applied to the bronchia; cited from earlier work
in vitro = assay type: cell-based; details: human, nhek keratinocytes
Description: The 1-(2-benzimidazolyl)-1,5-diazacyclooctane compounds of the present invention show a weak cytotoxicity toward normal human epidermal keratinocytes (NHEK) growth. […] In comparison, the NR50 value of Astemizole is about 4.42 μM.

[1] = test system: DNP-As-induced bronchoconstriction; assay: guinea pig antigen-induced bronchoconstriction model (DNP-As-induced, inhalation of compound); assay type: in vivo; details: 0.01 mg/ml solution, inhalation for 1 minute with ultrasonic nebulizer, DNP-As 100 μg protein/ml, 1 ml/kg, i.v.
Description: In the guinea pig antigen-induced bronchoconstriction model, the 1-(2-benzimidazolyl)-1,5-diazacyclooctane compounds of the present invention also show a potent antiallergic activity and a long-lasting efficacy.

histamine H1-receptor = biological target: T1, histamine H1-receptor (Cavia porcellus, UniProt P31389); assay: receptor binding assay in blocking 3H-pyrilamine binding to histamine H1-receptor site in guinea pig cerebellum; details: read-out: 50% inhibitory activity (concentration producing 50% reduction of the binding of the labeled ligand)
T1 construct: histamine H1 -receptor site in guinea pig cerebellum; from tissue; host or cells: guinea pig cerebellum
Description: The pharmacological activity of the 1-(2-benzimidazolyl)-1,5-diazacyclooctane compounds of the present invention can be confirmed by receptor binding assay in blocking 3H-pyrilamine binding to histamine H1 -receptor site in guinea pig cerebellum. The 1-(2-benzimidazolyl)-1,5-diazacyclooctane compounds of the present invention show a potent histamine H1 -receptor antagonistic activity, and produce a 50% inhibitory activity in a range of about 10^-10 to 10^-8 M (concentration producing 50% reduction of the binding of the labeled ligand).

T1 sequence (P31389 whole entry): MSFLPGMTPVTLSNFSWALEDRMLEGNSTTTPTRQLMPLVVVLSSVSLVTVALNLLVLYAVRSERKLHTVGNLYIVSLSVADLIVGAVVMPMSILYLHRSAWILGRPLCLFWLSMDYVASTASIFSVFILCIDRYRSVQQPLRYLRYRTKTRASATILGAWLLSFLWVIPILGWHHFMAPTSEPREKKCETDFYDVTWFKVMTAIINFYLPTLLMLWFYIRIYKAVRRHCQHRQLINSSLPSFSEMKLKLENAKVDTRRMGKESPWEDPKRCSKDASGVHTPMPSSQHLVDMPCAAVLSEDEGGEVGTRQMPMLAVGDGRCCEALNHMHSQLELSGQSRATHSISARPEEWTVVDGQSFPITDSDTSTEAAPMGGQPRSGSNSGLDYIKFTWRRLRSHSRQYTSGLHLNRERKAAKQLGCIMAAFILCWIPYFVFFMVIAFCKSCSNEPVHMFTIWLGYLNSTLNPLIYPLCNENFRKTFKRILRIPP

| SMILES | irritation to bronchial tissues (in words) (bronchial tissues) | CC50 (in vitro) [µM] | inhibition of DNP-As-induced bronchoconstriction at 4 hours after inhalation [1] | inhibition of DNP-As-induced bronchoconstriction at 8 hours after inhalation [1] | IC50 (histamine H1-receptor) [µM] |
| --- | --- | --- | --- | --- | --- |
| COc1ccc(CCN2CCC(Nc3nc4ccccc4n3Cc3ccc(F)cc3)CC2)cc1 [Astemizole] | strong irritation to bronchial tissues | ~4.42 | about 37.5% | about 29.3% | – |
| O=C(O)CCc1ccc(CCN2CCCN(c3nc4ccccc4n3Cc3ccc(F)cc3)CCC2)cc1 [Compound 16, 5-[2-[4-(2-Carboxyethyl)phenyl]ethyl]-1-[1-(4-fluorophenylmethyl)-1H-benzimidazol-2-yl]-1,5-diazacyclooctane] | – | ~789 | about 54.6% | about 44.7% | ~0.000575 |
